Values quoted from earlier work in publication PMC10368966, “Safety and efficacy of AK0529 in respiratory syncytial virus‐infected infant patients: A phase 2 proof‐of‐concept trial” (Influenza and Other Respiratory Viruses, 2023).

Legend:
RSV = tested on: RSV; set-up: method as in PMID 32201897; conditions: cited from earlier work
SARS-CoV-2 [1] = tested on: SARS-CoV-2; set-up: method as in PMID 32423584; conditions: cell cultures ref 18; cited from earlier work
SARS-CoV-2 [2] = tested on: SARS-CoV-2; set-up: method as in PMID 32423584; conditions: patients with severe COVID-19 ref 18; cited from earlier work

SMILES	length of hospital stay or time to clinical stability (RSV)	reduction in RSV viral load vs placebo (RSV)	inhibition of SARS-CoV-2 virus replication (SARS-CoV-2 [1])	effect on viral load (SARS-CoV-2 [2])	time to clinical improvement (SARS-CoV-2 [2])
CS(=O)(=O)CCCn1c(Cn2c(=O)n(CC(F)(F)F)c3ccncc32)cc2cc(Cl)ccc21 [JNJ‐8678]	no improvements	greater reduction in RSV viral load than with placebo	–	–	–
CCC(CC)COC(=O)[C@H](C)N[P@](=O)(OC[C@H]1O[C@@](C#N)(c2ccc3c(N)ncnn23)[C@H](O)[C@@H]1O)Oc1ccccc1 [Remdesivir]	–	–	potent inhibitor	no effect	numerically shorter
